Measurements reported in patent publication US6887890B2, “Compounds exhibiting thrombopoietin-like activities” (Chugai Seiyaku Kabushiki Kaisha, priority 2000, dated 2005).

Tested on: Mpl-expressing Ba/F3 cell line (human mpl gene)
Assay: Measurement of thrombopoietin (TPO) activity: viable cell count of Mpl-expressing Ba/F3 cell line (Cell Count Reagent SF, absorbance 450 nm)
Type: cell-based
Details: for Concentration: concentration corresponding to the maximum TPO activity value; for TPO activity: maximum TPO activity value, ODt/ODs×100 relative to maximum reaction of human TPO, Mpl-expressing Ba/F3 cells cultured at 37° C. for one day, at the concentration given
Method: The TPO activities of the compounds of the invention obtained in the aforementioned examples were measured by the procedure described below, for evaluation of their thrombopoietic effects.
Establishment of Mpl-expressing Ba/F3 Cell Line
The human mpl gene was cloned from cDNAs of the human erythroleukemia cell line HEL by PCR, and was incorporated into pCOS1 to construct an expression vector. The expression vector was transfected into Ba/F3 cells by electroporation method, and an Mpl-expressing Ba/F3 clone was established.
Measurement of Thrombopoietin (TPO) Activity
The cytokine-eliminated Mpl-expressing Ba/F3 line was plated in a 96-well plate at 25,000 cells/well. DMSO solutions containing the compounds obtained in each of the examples were then prepared to different specified concentration ranges, and each solution was added to the Mpl-expressing Ba/F3 cell line (final DMSO concentration: ≦0.1%), and the cell were cultured at 37° C. for one day. Human TPO (by R&D Systems or Genzyme) was used as a positive control.
Each of the cultured Mpl-expressing Ba/F3 cell lines was subjected to absorbance measurement at a wavelength of 450 nm (reference wavelength: 620 nm), corresponding to the viable cell count, using Cell Count Reagent SF (by Nacalai Tesque Inc.). The TPO activity of each compound for the Mpl-expressing Ba/F3 cell line was determined based on the following formula. TPO activity (%)=ODt/ODs×100
ODs: Absorbance at maximum reaction of human TPO (wavelength: 450-620 nm).
ODt: Absorbance of test solution (wavelength: 450-620 nm).
Tables 1 and 2 show the maximum TPO activity values and the corresponding concentrations of each compound, as obtained by the test described above.

Structure (SMILES) | Concentration [µM] | TPO activity [%]
Cc1[nH]c2ccccc2c1CC(=O)N[C@@H](CCN)C(=O)Nc1ccc(C(c2ccc(NC(=O)[C@H](CCN)NC(=O)Cc3c(C)[nH]c4ccccc34)cc2)c2ccc(NC(=O)[C@H](CCN)NC(=O)Cc3c(C)[nH]c4ccccc34)cc2)cc1.O=C(O)C(F)(F)F [Example 132, tris[4-[β-aminomethyl-N-[2-(2-methyl-1H-indol-3-yl)acetyl]-L-alanyl]aminophenyl]methane trifluoroacetate] | 50 | 22.3
Cl.N=C(N)NCCC[C@H](NC(=O)Cc1ccsc1)C(=O)Nc1ccc(C(c2ccc(NC(=O)[C@H](CCCNC(=N)N)NC(=O)Cc3ccsc3)cc2)c2ccc(NC(=O)[C@H](CCCNC(=N)N)NC(=O)Cc3ccsc3)cc2)cc1 (stereo partly drawn) [Example 38, tris[4-[N-α-[2-(thiophen-3-yl)acetyl]-L-arginyl]aminophenyl]methane hydrochloride] | 25 | 124
Cl.NCCCC[C@H](NC(=O)Cc1c[nH]c2ccc(O)cc12)C(=O)Nc1ccc(C(c2ccc(NC(=O)[C@H](CCCCN)NC(=O)Cc3c[nH]c4ccc(O)cc34)cc2)c2ccc(NC(=O)[C@H](CCCCN)NC(=O)Cc3c[nH]c4ccc(O)cc34)cc2)cc1 [Example 18, tris[4-[N-α-[2-(5-hydroxy-1H-indol-3-yl)acetyl]-L-lysyl]aminophenyl]methane hydrochloride] | 50 | 46.5
NCCCC[C@@H](NC(=O)Cc1ccc(O)c(O)c1)C(=O)Nc1ccc(C(c2ccc(NC(=O)[C@@H](CCCCN)NC(=O)Cc3ccc(O)c(O)c3)cc2)c2ccc(NC(=O)[C@@H](CCCCN)NC(=O)Cc3ccc(O)c(O)c3)cc2)cc1.O=C(O)C(F)(F)F [Example 188, tris[4-[N-α-[2-(3,4-dihydroxyphenyl)acetyl]-D-lysyl]aminophenyl]methane trifluoroacetate] | 100 | 10.1
COc1ccc2[nH]c(C)c(CC(=O)N[C@@H](CCCCN)C(=O)Nc3ccc(C(c4ccc(NC(=O)[C@H](CCCCN)NC(=O)Cc5c(C)[nH]c6ccc(OC)cc56)cc4)c4ccc(NC(=O)[C@H](CCCCN)NC(=O)Cc5c(C)[nH]c6ccc(OC)cc56)cc4)cc3)c2c1.Cl [Example 6, tris[4-[N-α-[2-(5-methoxy-2-methyl-1H-indol-3-yl)acetyl]-L-lysyl]aminophenyl]methane hydrochloride] | 25 | 17.4
Cl.NCCCSC[C@H](NC(=O)Cc1c[nH]c2ccccc12)C(=O)Nc1ccc(C(c2ccc(NC(=O)[C@H](CSCCCN)NC(=O)Cc3c[nH]c4ccccc34)cc2)c2ccc(NC(=O)[C@H](CSCCCN)NC(=O)Cc3c[nH]c4ccccc34)cc2)cc1 [Example 33, tris[4-[N-[2-(1H-indol-3-yl)acetyl]-S-(3-aminopropyl)-L-cystyl]aminophenyl]methane hydrochloride] | 50 | 17.4
Cl.NCCCC[C@@H](NC(=O)Cc1ccncc1)C(=O)Nc1ccc(C(c2ccc(NC(=O)[C@@H](CCCCN)NC(=O)Cc3ccncc3)cc2)c2ccc(NC(=O)[C@@H](CCCCN)NC(=O)Cc3ccncc3)cc2)cc1 [Example 173, tris[4-[N-α-[2-(pyridin-4-yl)acetyl]-D-lysyl]aminophenyl]methane hydrochloride] | 100 | 35.4
CN(C)CCCC[C@H](NC(=O)Cc1ccsc1)C(=O)Nc1ccc(C(c2ccc(NC(=O)[C@H](CCCCN(C)C)NC(=O)Cc3ccsc3)cc2)c2ccc(NC(=O)[C@H](CCCCN(C)C)NC(=O)Cc3ccsc3)cc2)cc1 [Example 32, tris[4-[N-α-[2-(thiophen-3-yl)acetyl]-N-ε-dimethyl-L-lysyl]aminophenyl]methane] | 25 | 87.1
Cl.NCCCC[C@@H](NC(=O)Cc1cccs1)C(=O)Nc1ccc(C(c2ccc(NC(=O)[C@@H](CCCCN)NC(=O)Cc3cccs3)cc2)c2ccc(NC(=O)[C@@H](CCCCN)NC(=O)Cc3cccs3)cc2)cc1 [Example 164, tris[4-[N-α-[2-(thiophen-2-yl)acetyl]-D-lysyl]aminophenyl]methane hydrochloride] | 25 | 24.9
Cc1[nH]c2ccccc2c1CC(=O)N[C@@H](CCCCN(C)C)C(=O)Nc1ccc(C(c2ccc(NC(=O)[C@H](CCCCN(C)C)NC(=O)Cc3c(C)[nH]c4ccccc34)cc2)c2ccc(NC(=O)[C@H](CCCCN(C)C)NC(=O)Cc3c(C)[nH]c4ccccc34)cc2)cc1 [Example 30, tris[4-[N-α-[2-(2-methyl-1H-indol-3-yl)acetyl]-N-ε-dimethyl-L-lysyl]aminophenyl]methane] | 25 | 108
Cl.NCCCC[C@H](NC(=O)Cc1ccc(O)cc1)C(=O)Nc1ccc(C(c2ccc(NC(=O)[C@H](CCCCN)NC(=O)Cc3ccc(O)cc3)cc2)c2ccc(NC(=O)[C@H](CCCCN)NC(=O)Cc3ccc(O)cc3)cc2)cc1 [Example 19, tris[4-[N-α-[2-(4-hydroxyphenyl)acetyl]-L-lysyl]aminophenyl]methane hydrochloride] | 50 | 19.1
N[C@H](CCCCNC(=O)Cc1ccccc1)C(=O)Nc1ccc(C(c2ccc(NC(=O)[C@H](N)CCCCNC(=O)Cc3ccccc3)cc2)c2ccc(NC(=O)[C@H](N)CCCCNC(=O)Cc3ccccc3)cc2)cc1.O=C(O)C(F)(F)F [Example 187, tris[4-[N-ε-(2-phenylacetyl)-D-lysyl]aminophenyl]methane trifluoroacetate] | 25 | 60.2
Cl.NCCCC[C@@H](NC(=O)Cc1ccsc1)C(=O)Nc1ccc(C(c2ccc(NC(=O)[C@@H](CCCCN)NC(=O)Cc3ccsc3)cc2)c2ccc(NC(=O)[C@@H](CCCCN)NC(=O)Cc3ccsc3)cc2)cc1 [Example 23, tris[4-[N-α-[2-(thiophen-3-yl)acetyl]-D-lysyl]aminophenyl]methane hydrochloride] | 25 | 48.0
NCCCC[C@@H](NC(=O)c1cccc2cc(O)ccc12)C(=O)Nc1ccc(C(c2ccc(NC(=O)[C@@H](CCCCN)NC(=O)c3cccc4cc(O)ccc34)cc2)c2ccc(NC(=O)[C@@H](CCCCN)NC(=O)c3cccc4cc(O)ccc34)cc2)cc1.O=C(O)C(F)(F)F [Example 192, tris[4-[N-α-(6-hydroxynaphthalen-1-yl)carbonyl-D-lysyl]aminophenyl]methane trifluoroacetate] | 25 | 71.3
COc1ccc2[nH]c(C)c(CC(=O)N[C@@H](CCCN)C(=O)Nc3ccc(C(c4ccc(NC(=O)[C@H](CCCN)NC(=O)Cc5c(C)[nH]c6ccc(OC)cc56)cc4)c4ccc(NC(=O)[C@H](CCCN)NC(=O)Cc5c(C)[nH]c6ccc(OC)cc56)cc4)cc3)c2c1.O=C(O)C(F)(F)F [Example 135, tris[4-[N-α-[2-(5-methoxy-2-methyl-1H-indol-3-yl)acetyl]-L-ornithyl]aminophenyl]methane trifluoroacetate] | 50 | 15.8
NCC[C@H](NC(=O)Cc1c[nH]c2ccccc12)C(=O)Nc1ccc(C(c2ccc(NC(=O)[C@H](CCN)NC(=O)Cc3c[nH]c4ccccc34)cc2)c2ccc(NC(=O)[C@H](CCN)NC(=O)Cc3c[nH]c4ccccc34)cc2)cc1.O=C(O)C(F)(F)F [Example 131, tris[4-[β-aminomethyl-N-[2-(1H-indol-3-yl)acetyl]-L-alanyl]aminophenyl]methane trifluoroacetate] | 50 | 88.0
Cl.NCCCC[C@@H](NC(=O)[C@H](N)Cc1ccc(O)cc1)C(=O)Nc1ccc(C(c2ccc(NC(=O)[C@@H](CCCCN)NC(=O)[C@H](N)Cc3ccc(O)cc3)cc2)c2ccc(NC(=O)[C@@H](CCCCN)NC(=O)[C@H](N)Cc3ccc(O)cc3)cc2)cc1 [Example 160, tris[4-[N-α-(D-tyrosyl)-D-lysyl]aminophenyl]methane hydrochloride] | 100 | 22.5
Cl.NCCCC[C@@H](NC(=O)Cc1ccccn1)C(=O)Nc1ccc(C(c2ccc(NC(=O)[C@@H](CCCCN)NC(=O)Cc3ccccn3)cc2)c2ccc(NC(=O)[C@@H](CCCCN)NC(=O)Cc3ccccn3)cc2)cc1 [Example 172, tris[4-[N-α-[2-(pyridin-2-yl)acetyl]-D-lysyl]aminophenyl]methane hydrochloride] | 100 | 24.4
Cl.NCCCC[C@@H](NC(=O)Cc1cccc(O)c1)C(=O)Nc1ccc(C(c2ccc(NC(=O)[C@@H](CCCCN)NC(=O)Cc3cccc(O)c3)cc2)c2ccc(NC(=O)[C@@H](CCCCN)NC(=O)Cc3cccc(O)c3)cc2)cc1 [Example 159, tris[4-[N-α-[2-(3-hydroxyphenyl)acetyl]-D-lysyl]aminophenyl]methane hydrochloride] | 25 | 18.6
Cl.NCCCC[C@H](NC(=O)c1cccnc1)C(=O)Nc1ccc(C(c2ccc(NC(=O)[C@H](CCCCN)NC(=O)c3cccnc3)cc2)c2ccc(NC(=O)[C@H](CCCCN)NC(=O)c3cccnc3)cc2)cc1 [Example 17, tris[4-[N-α-(3-pyridylcarbonyl)-L-lysyl]aminophenyl]methane hydrochloride] | 50 | 16.5
